Results published in PubChem BioAssay AID256 (DTP/NCI, 2004).
Several values for one entry are separate records, joined by “and”; a condition that tells them apart may be missing. Identical values can stand only once. Toxic doses and inconclusive results are not listed. The calls were made as follows: active = survival T/C of 150% or more; inactive = T/C below 125% in these data.

System: CD2F1 mice, L1210 leukemia ip, survival T/C
Assay: NCI In Vivo Anticancer Drug Screen. Data for tumor model L1210 Leukemia (intraperitoneal) in CD2F1 (CDF1) mice
Conditions: higher = longer survival
How it was run: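 Mice carrying a transplanted tumor received test compound or vehicle alone. The value is the measurement in the treated group divided by that in the vehicle-treated control group.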

[1] = endpoint: mean survival time, dose: 50.0 mg/kg/injection, schedule: Q01DX009 (ip), vehicle: saline with Tween-80
[2] = endpoint: mean survival time, dose: 100.0 mg/kg/injection, schedule: Q01DX009 (ip), vehicle: saline with Tween-80
[3] = endpoint: mean survival time, dose: 200.0 mg/kg/injection, schedule: Q01DX009 (ip), vehicle: saline with Tween-80
[4] = endpoint: mean survival time, dose: 100.0 mg/kg/injection, schedule: Q01DX001 (ip), vehicle: saline with Tween-80
[5] = endpoint: mean survival time, dose: 200.0 mg/kg/injection, schedule: Q01DX001 (ip), vehicle: saline with Tween-80
[6] = endpoint: mean survival time, dose: 400.0 mg/kg/injection, schedule: Q01DX001 (ip), vehicle: saline with Tween-80
[7] = endpoint: mean survival time, dose: 100.0 mg/kg/injection, schedule: Q01DX009 (ip), vehicle: saline
[8] = endpoint: mean survival time, dose: 100.0 mg/kg/injection, schedule: Q04DX003 (ip), vehicle: saline with Tween-80
[9] = endpoint: mean survival time, dose: 200.0 mg/kg/injection, schedule: Q01DX009 (ip), vehicle: saline
[10] = endpoint: mean survival time, dose: 200.0 mg/kg/injection, schedule: Q04DX003 (ip), vehicle: saline with Tween-80
[11] = endpoint: mean survival time, dose: 400.0 mg/kg/injection, schedule: Q04DX003 (ip), vehicle: saline with Tween-80
[12] = endpoint: mean survival time, dose: 25.0 mg/kg/injection, schedule: Q01DX009 (ip), vehicle: saline
[13] = endpoint: mean survival time, dose: 50.0 mg/kg/injection, schedule: Q01DX009 (ip), vehicle: saline
[14] = endpoint: mean survival time, dose: 100.0 mg/kg/injection, schedule: Q01DX009 (ip), vehicle: Klucel (hydroxypropylcellulose) (HPC)
[15] = endpoint: mean survival time, dose: 200.0 mg/kg/injection, schedule: Q01DX009 (ip), vehicle: Klucel (hydroxypropylcellulose) (HPC)
[16] = endpoint: mean survival time, dose: 100.0 mg/kg/injection, schedule: Q04DX002 (ip), vehicle: saline with Tween-80
[17] = endpoint: mean survival time, dose: 200.0 mg/kg/injection, schedule: Q04DX002 (ip), vehicle: saline with Tween-80
[18] = endpoint: mean survival time, dose: 400.0 mg/kg/injection, schedule: Q04DX002 (ip), vehicle: saline with Tween-80
[19] = endpoint: mean survival time, dose: 25.0 mg/kg/injection, schedule: Q01DX009 (ip), vehicle: saline with Tween-80

Measured: T/C

CN(C)c1ccc(/C=N/NC(=O)CNC(=O)Nc2cccc(C(F)(F)F)c2)c(Cl)c1
inactive: [1] 88 % of control | [2] 88 % of control | [3] 88 % of control

Cc1ccc(-n2c(O)c(N=Nc3ccccc3)c(=O)n(-c3ccccc3)c2=S)cc1
inactive: [4] 100 % of control | [5] 100 % of control | [6] 86 % of control

CC(=O)ON(C(C)=O)c1ccc(C(N)=O)cc1
inactive: endpoint: median survival time, dose: 25.0 mg/kg/injection, schedule: Q01DX009 (ip), vehicle: saline with Tween-80 103 % of control | endpoint: median survival time, dose: 50.0 mg/kg/injection, schedule: Q01DX009 (ip), vehicle: saline with Tween-80 100 % of control | endpoint: median survival time, dose: 100.0 mg/kg/injection, schedule: Q01DX009 (ip), vehicle: saline with Tween-80 101 % of control | endpoint: median survival time, dose: 200.0 mg/kg/injection, schedule: Q01DX009 (ip), vehicle: saline with Tween-80 103 % of control | endpoint: median survival time, dose: 400.0 mg/kg/injection, schedule: Q01DX009 (ip), vehicle: saline with Tween-80 108 % of control

CC/C=C(\CC)C(=O)O
inactive: [1] 109 % of control | [2] 105 % of control | [3] 105 % of control

COC(=O)CC(NC(=O)C(F)(F)F)C(=O)OC (stereo unspecified)
inactive: endpoint: mean survival time, dose: 100.0 mg/kg/injection, schedule: Q01DX001 (ip), vehicle: saline 108 % of control | [7] 94 % of control | [8] 97 % of control | endpoint: mean survival time, dose: 200.0 mg/kg/injection, schedule: Q01DX001 (ip), vehicle: saline 104 % of control | [9] 94 % of control | [10] 97 % of control | endpoint: mean survival time, dose: 400.0 mg/kg/injection, schedule: Q01DX001 (ip), vehicle: saline 98 % of control | endpoint: mean survival time, dose: 400.0 mg/kg/injection, schedule: Q01DX009 (ip), vehicle: saline 100 % of control | [11] 103 % of control

COC(=O)C1CC2C(CCC3C(C)(C(=O)OC)CCCC23C)C(=O)C1(O)C(C)C (stereo unspecified)
inactive: [8] 101 % of control | [10] 105 % of control | [11] 91 % of control

COc1ccccc1C1C=CCCCC1 (stereo unspecified)
inactive: endpoint: mean survival time, dose: 100.0 mg/kg/injection, schedule: Q04DX003 (ip), vehicle: saline 95 % of control | endpoint: mean survival time, dose: 200.0 mg/kg/injection, schedule: Q04DX003 (ip), vehicle: saline 93 % of control | endpoint: mean survival time, dose: 400.0 mg/kg/injection, schedule: Q04DX003 (ip), vehicle: saline 96 % of control

Nc1nc(-c2ccccc2)c(Br)c(=O)[nH]1
inactive: [8] 104 % of control | [10] 96 % of control | [11] 93 % of control

Cc1ccc(NC(=O)c2ccccc2C(=O)O)cc1
inactive: [8] 101 % of control | [10] 97 % of control | [11] 95 % of control

COC(=O)CCN(C(=O)c1ccccc1)c1ccccc1C(=O)OC
inactive: endpoint: mean survival time, dose: 75.0 mg/kg/injection, schedule: Q04DX003 (ip), vehicle: saline 100 % of control | endpoint: mean survival time, dose: 150.0 mg/kg/injection, schedule: Q04DX003 (ip), vehicle: saline 94 % of control | endpoint: mean survival time, dose: 300.0 mg/kg/injection, schedule: Q04DX003 (ip), vehicle: saline 100 % of control

C=CCOCC(O)CN(CCC)CCC (stereo unspecified)
inactive: endpoint: mean survival time, dose: 12.5 mg/kg/injection, schedule: Q01DX009 (ip), vehicle: saline 103 % of control | [12] 95 % of control | endpoint: mean survival time, dose: 25.0 mg/kg/injection, schedule: Q04DX003 (ip), vehicle: saline 93 % of control | [13] 103 % of control | endpoint: mean survival time, dose: 50.0 mg/kg/injection, schedule: Q04DX003 (ip), vehicle: saline 89 % of control | [8] 97 % of control

N#Cc1cnc(N)[nH]c1=O
inactive: endpoint: mean survival time, dose: 50.0 mg/kg/injection, schedule: Q01DX009 (ip), vehicle: Klucel (hydroxypropylcellulose) (HPC) 88 % of control | [14] 88 % of control | [15] 91 % of control

CN(C)C(=O)Nc1ccc(F)cc1
inactive: [16] 97 % of control | [17] 102 % of control | [18] 91 % of control

CC(=O)OC1CCC2(C)C(CCC3C4CC=C(C(C)=O)C4(C)CCC32)C1 (stereo unspecified)
inactive: [2] 92 % of control | [3] 92 % of control | endpoint: mean survival time, dose: 400.0 mg/kg/injection, schedule: Q01DX009 (ip), vehicle: saline with Tween-80 89 % of control

CCCCCCCCCCCC(=O)CCCCC
inactive: endpoint: mean survival time, dose: 100.0 mg/kg/injection, schedule: Q04DX003 (ip), vehicle: other 96 % of control | endpoint: mean survival time, dose: 200.0 mg/kg/injection, schedule: Q04DX003 (ip), vehicle: other 97 % of control | endpoint: mean survival time, dose: 400.0 mg/kg/injection, schedule: Q04DX003 (ip), vehicle: other 97 % of control

Nc1ncnc(N)c1NC(=O)c1cccc(Cl)c1
inactive: endpoint: mean survival time, dose: 25.0 mg/kg/injection, schedule: Q04DX003 (ip), vehicle: saline with Tween-80 100 % of control | endpoint: mean survival time, dose: 50.0 mg/kg/injection, schedule: Q04DX003 (ip), vehicle: saline with Tween-80 100 % of control | [8] 118 % of control and 108 % of control

CC1=CC(=O)C(C(C)C)=CC1=O
inactive: [19] 101 % of control | [1] 108 % of control | [8] 88 % of control

CCC(c1ccc2cc(OC)ccc2c1)C(CC(=O)O)C(=O)OC (stereo unspecified)
inactive: [14] 98 % of control | [15] 98 % of control | endpoint: mean survival time, dose: 400.0 mg/kg/injection, schedule: Q01DX009 (ip), vehicle: Klucel (hydroxypropylcellulose) (HPC) 100 % of control

NC(=O)c1ccn(C2OC(CO)C(O)C2O)n1 (stereo unspecified)
inactive: endpoint: mean survival time, dose: 200.0 mg/kg/injection, schedule: Q01DX005 (ip), vehicle: other 106 % of control | endpoint: mean survival time, dose: 400.0 mg/kg/injection, schedule: Q01DX005 (ip), vehicle: other 107 % of control | endpoint: mean survival time, dose: 800.0 mg/kg/injection, schedule: Q01DX005 (ip), vehicle: other 117 % of control

O=C(OCc1ccccc1)C1CC1 (tested in a mixture with another compound)
inactive: [19] 86 % of control | endpoint: mean survival time, dose: 50.0 mg/kg/injection, schedule: Q01DX005 (ip), vehicle: saline with Tween-80 101 % of control | [1] 96 % of control | endpoint: mean survival time, dose: 50.0 mg/kg/injection, schedule: Q04DX002 (ip), vehicle: saline 102 % of control | endpoint: mean survival time, dose: 100.0 mg/kg/injection, schedule: Q01DX005 (ip), vehicle: saline with Tween-80 93 % of control | [2] 86 % of control | endpoint: mean survival time, dose: 100.0 mg/kg/injection, schedule: Q04DX002 (ip), vehicle: saline 97 % of control | endpoint: mean survival time, dose: 200.0 mg/kg/injection, schedule: Q01DX005 (ip), vehicle: saline with Tween-80 97 % of control | [3] 86 % of control | endpoint: mean survival time, dose: 200.0 mg/kg/injection, schedule: Q04DX002 (ip), vehicle: saline 105 % of control | endpoint: mean survival time, dose: 400.0 mg/kg/injection, schedule: Q04DX002 (ip), vehicle: saline 97 % of control

CCCCCCCCC(CCCCCCCC)CCCC1CCCC1
inactive: [4] 95 % of control | [5] 110 % of control | [6] 103 % of control

Nc1nc(N)c(-c2ccc(Cl)cc2)c(COc2ccc(CCC3(CCl)OCCO3)cc2)n1
inactive: endpoint: mean survival time, dose: 25.0 mg/kg/injection, schedule: Q01DX001 (ip), vehicle: saline with Tween-80 101 % of control | endpoint: mean survival time, dose: 50.0 mg/kg/injection, schedule: Q01DX001 (ip), vehicle: saline with Tween-80 101 % of control | [4] 108 % of control

Cn1c(C(=O)c2ccncc2)cc2ccccc21
inactive: [4] 103 % of control | [16] 100 % of control | [5] 103 % of control | [17] 100 % of control | [6] 103 % of control | [18] 95 % of control

NC1CCC(C(=O)O)CC1 (stereo unspecified)
inactive: [12] 105 % of control | [13] 97 % of control and 105 % of control | [7] 94 % of control and 102 % of control | [9] 102 % of control

OCc1cc(Cl)cc(Cl)c1OCc1ccccc1
inactive: endpoint: mean survival time, dose: 100.0 mg/kg/injection, schedule: Q04DX002 (ip), vehicle: other 101 % of control | endpoint: mean survival time, dose: 200.0 mg/kg/injection, schedule: Q04DX002 (ip), vehicle: other 101 % of control | endpoint: mean survival time, dose: 400.0 mg/kg/injection, schedule: Q04DX002 (ip), vehicle: other 101 % of control

CCOc1ccc(C(/C(Cl)=N/O)C(Cl)(Cl)Cl)cc1 (stereo unspecified)
inactive: endpoint: mean survival time, dose: 12.5 mg/kg/injection, schedule: Q01DX009 (ip), vehicle: acetone 94 % of control | endpoint: mean survival time, dose: 25.0 mg/kg/injection, schedule: Q01DX009 (ip), vehicle: acetone 103 % of control | endpoint: mean survival time, dose: 50.0 mg/kg/injection, schedule: Q01DX009 (ip), vehicle: acetone 108 % of control
